Series [1] relates to Hepatotoxicity. Description: Literature-mined compound from Fourches et al multi-species drug-induced liver injury (DILI) dataset, effect in humans. Particulars: human.
In series [2] the test system is Hepatotoxicity. The series can be described thus: Literature-mined compound from Fourches et al multi-species drug-induced liver injury (DILI) dataset, effect in rodents. The following applies: rodentia.
Series [3] has as its system Hepatotoxicity. Description: Literature-mined compound from Fourches et al multi-species drug-induced liver injury (DILI) dataset, effect in non-rodents.

The results in this text go back to ChEMBL document CHEMBL1697731, “Cheminformatics analysis of assertions mined from literature that describe drug-induced liver injury in different species” (Chem Res Toxicol, 2010).

In the case of `CC(C)(C)NCC(O)c1cc(O)cc(O)c1` (stereo unspecified) [TERBUTALINE], the Hepatotoxicity result was “no drug-induced liver injury reported” in series [1], “drug-induced liver injury reported” in series [2] and “drug-induced liver injury reported” in series [3].
For `CC(C)(C)c1ccc(C(O)CCCN2CCC(C(O)(c3ccccc3)c3ccccc3)CC2)cc1` (stereo unspecified) [TERFENADINE], the Hepatotoxicity entry is on record as “drug-induced liver injury reported” in series [1], “no drug-induced liver injury reported” in series [2] and “no drug-induced liver injury reported” in series [3].
In the case of `NCCCC[C@H](NC(=O)[C@@H]1CCCN1C(=O)[C@@H]1CSSC[C@H](NC(=O)CNC(=O)CNC(=O)CN)C(=O)N[C@@H](Cc2ccc(O)cc2)C(=O)N[C@@H](Cc2ccccc2)C(=O)N[C@@H](CCC(N)=O)C(=O)N[C@@H](CC(N)=O)C(=O)N1)C(=O)NCC(N)=O` [TERLIPRESSIN], the values for the Hepatotoxicity result in series [1], in series [2] and in series [3] were “drug-induced liver injury reported”, “no drug-induced liver injury reported” and “drug-induced liver injury reported”, respectively.
As to `CCCCCCC(=O)O[C@H]1CC[C@H]2[C@@H]3CCC4=CC(=O)CC[C@]4(C)[C@H]3CC[C@]12C` [TESTOSTERONE ENANTHATE], the figures for the Hepatotoxicity entry in series [1], in series [2] and in series [3] were “no drug-induced liver injury reported”, “drug-induced liver injury reported” and “no drug-induced liver injury reported”, respectively.
Take `CCC(=O)O[C@H]1CC[C@H]2[C@@H]3CCC4=CC(=O)CC[C@]4(C)[C@H]3CC[C@]12C` [TESTOSTERONE PROPIONATE]: the Hepatotoxicity result was “no drug-induced liver injury reported” in series [1], “drug-induced liver injury reported” in series [2] and “no drug-induced liver injury reported” in series [3].
Consider `C[C@]12CC[C@H]3[C@@H](CCC4=CC(=O)CC[C@@]43C)[C@@H]1CC[C@@H]2O` [TESTOSTERONE], for which the Hepatotoxicity entry in series [1], in series [2] and in series [3] was “drug-induced liver injury reported” each time.
As for `COc1cc2c(cc1OC)C1CC(=O)C(CC(C)C)CN1CC2` (stereo unspecified) [TETRABENAZINE], the figures for the Hepatotoxicity result in series [1], in series [2] and in series [3] were “drug-induced liver injury reported”, “no drug-induced liver injury reported” and “no drug-induced liver injury reported”, respectively.
Turning to `CCCCNc1ccc(C(=O)OCCN(C)C)cc1` [TETRACAINE], the values for the Hepatotoxicity result in series [1], in series [2] and in series [3] were “no drug-induced liver injury reported”, “drug-induced liver injury reported” and “no drug-induced liver injury reported”, respectively.
As to `ClC(Cl)=C(Cl)Cl` [TETRACHLOROETHYLENE], the Hepatotoxicity entry in series [1] was “drug-induced liver injury reported”; in series [2], “drug-induced liver injury reported”; in series [3] it was “no drug-induced liver injury reported”.
Consider `CN(C)[C@@H]1C(O)=C(C(N)=O)C(=O)[C@@]2(O)C(O)=C3C(=O)c4c(O)cccc4[C@@](C)(O)[C@H]3C[C@@H]12` [TETRACYCLINE], for which the Hepatotoxicity entry in series [1], in series [2] and in series [3] was “drug-induced liver injury reported” in each case.
For the molecule `COc1ccccc1Oc1c(NS(=O)(=O)c2ccc(C(C)C)cn2)nc(-c2ccnc(-c3nnn[nH]3)c2)nc1OCCO` [TEZOSENTAN], the Hepatotoxicity entry in series [1] is given as “no drug-induced liver injury reported”; in series [2] it was “drug-induced liver injury reported”; in series [3] it was “no drug-induced liver injury reported”.
As to `O=C1CCC(N2C(=O)c3ccccc3C2=O)C(=O)N1` (stereo unspecified) [THALIDOMIDE], the results for the Hepatotoxicity result in series [1], in series [2] and in series [3] were “drug-induced liver injury reported”, “drug-induced liver injury reported” and “no drug-induced liver injury reported”, respectively.
As to `Cn1c(=O)c2[nH]cnc2n(C)c1=O.O` [THEOPHYLLINE], the Hepatotoxicity entry in series [1], in series [2] and in series [3] was “drug-induced liver injury reported” throughout.
On to `c1ccc2[nH]c(-c3cscn3)nc2c1` [THIABENDAZOLE], for which the Hepatotoxicity entry in series [1], in series [2] and in series [3] was “drug-induced liver injury reported” throughout.
As to `Cc1ncc(C[n+]2csc(CCO)c2C)c(N)n1` [THIAMINE ION], the Hepatotoxicity result in series [1] (Liver) was “drug-induced liver injury reported”; in series [2] (Liver), “drug-induced liver injury reported”; in series [3] (Liver) it was “no drug-induced liver injury reported”.
`CS(=O)(=O)c1ccc([C@@H](O)[C@@H](CO)NC(=O)C(Cl)Cl)cc1` [THIAMPHENICOL]: the Hepatotoxicity entry was “drug-induced liver injury reported” in series [1], “drug-induced liver injury reported” in series [2] and “no drug-induced liver injury reported” in series [3].
As for `CSC[C@H]1C(=O)SC[C@@H](NC(=O)c2nc3ccccc3cc2O)C(=O)NCC(=O)N(C)[C@H]2SSC[C@@H](C(=O)N1C)N(C)C(=O)CNC(=O)[C@H](NC(=O)c1nc3ccccc3cc1O)CSC(=O)[C@H](CSC)N(C)C2=O` [THIOCORALINE], the Hepatotoxicity entry in series [1] is given as “drug-induced liver injury reported”; in series [2], “no drug-induced liver injury reported”; in series [3], “no drug-induced liver injury reported”.
Consider `CSc1ccc2c(c1)N(CCC1CCCCN1C)c1ccccc1S2` (stereo unspecified) [THIORIDAZINE], for which the results for the Hepatotoxicity entry in series [1], in series [2] and in series [3] were “drug-induced liver injury reported”, “drug-induced liver injury reported” and “no drug-induced liver injury reported”, respectively.
Regarding `OCCSCCCCCCCCCCSCCO` [TIADENOL], the Hepatotoxicity result in series [1] was “no drug-induced liver injury reported”; in series [2] it was “drug-induced liver injury reported”; in series [3], “no drug-induced liver injury reported”.
In the case of `CC(C(=O)O)c1ccc(C(=O)c2ccccc2)s1` (stereo unspecified) [TIAPROFENIC ACID], the Hepatotoxicity entry in series [1] is given as “no drug-induced liver injury reported”; in series [2] it was “drug-induced liver injury reported”; in series [3], “no drug-induced liver injury reported”.
On to `NC(=O)c1csc([C@@H]2O[C@H](CO)[C@@H](O)[C@H]2O)n1` [TIAZOFURIN], for which the Hepatotoxicity result is recorded as “no drug-induced liver injury reported” in series [1], “drug-induced liver injury reported” in series [2] and “no drug-induced liver injury reported” in series [3].
As for `Clc1ccccc1CN1CCc2sccc2C1` [TICLOPIDINE], the Hepatotoxicity result in series [1] (Liver) is reported as “drug-induced liver injury reported”; in series [2] (Liver), “drug-induced liver injury reported”; in series [3] (Liver), “no drug-induced liver injury reported”.
As to `CC(C)(C)NC[C@H](O)COc1nsnc1N1CCOCC1` [TIMOLOL], the Hepatotoxicity entry in series [1] is “drug-induced liver injury reported”; in series [2], “no drug-induced liver injury reported”; in series [3], “no drug-induced liver injury reported”.
For `CC(S)C(=O)NCC(=O)O` (stereo unspecified) [TIOPRONIN], the Hepatotoxicity result in series [1] is recorded as “drug-induced liver injury reported”; in series [2], “drug-induced liver injury reported”; in series [3], “no drug-induced liver injury reported”.
`Nc1n[n+]([O-])c2ccccc2[n+]1[O-]` [TIRAPAZAMINE]: the Hepatotoxicity result is recorded as “no drug-induced liver injury reported” in series [1], “drug-induced liver injury reported” in series [2] and “no drug-induced liver injury reported” in series [3].
`O=C(O)Cc1cc(I)c(Oc2ccc(O)c(I)c2)c(I)c1` [TIRATRICOL]: the Hepatotoxicity result was “no drug-induced liver injury reported” in series [1], “drug-induced liver injury reported” in series [2] and “no drug-induced liver injury reported” in series [3].
Regarding `Clc1ccc2nsnc2c1NC1=NCCN1` [TIZANIDINE], the Hepatotoxicity result is “drug-induced liver injury reported” in series [1] (Liver), “no drug-induced liver injury reported” in series [2] (Liver) and “no drug-induced liver injury reported” in series [3] (Liver).
For the molecule `NC[C@H]1O[C@H](O[C@H]2[C@H](O)[C@@H](O[C@H]3O[C@H](CO)[C@@H](O)[C@H](N)[C@H]3O)[C@H](N)C[C@@H]2N)[C@H](N)C[C@@H]1O` [TOBRAMYCIN], the Hepatotoxicity result in series [1] is “no drug-induced liver injury reported”; in series [2], “drug-induced liver injury reported”; in series [3], “no drug-induced liver injury reported”.
With `CC(=O)Oc1c(C)c(C)c2c(c1C)CCC(C)(CCC[C@H](C)CCC[C@H](C)CCCC(C)C)O2` (stereo partly specified) [TOCOPHEROL ACETATE], the Hepatotoxicity result in series [1] is reported as “no drug-induced liver injury reported”; in series [2] it was “drug-induced liver injury reported”; in series [3] it was “no drug-induced liver injury reported”.
Regarding `Cc1ccc(S(=O)(=O)NC(=O)NN2CCCCCC2)cc1` [TOLAZAMIDE], the values for the Hepatotoxicity result in series [1], in series [2] and in series [3] were “drug-induced liver injury reported”, “drug-induced liver injury reported” and “no drug-induced liver injury reported”, respectively.
On to `Cc1ccc(C(=O)c2cc(O)c(O)c([N+](=O)[O-])c2)cc1` [TOLCAPONE], for which the figures for the Hepatotoxicity result in series [1] (Liver), in series [2] (Liver) and in series [3] (Liver) were “drug-induced liver injury reported”, “drug-induced liver injury reported” and “no drug-induced liver injury reported”, respectively.
For `Cc1ccc(C(=O)C(C)CN2CCCCC2)cc1` (stereo unspecified) [TOLPERISONE], the results for the Hepatotoxicity entry in series [1], in series [2] and in series [3] were “drug-induced liver injury reported”, “no drug-induced liver injury reported” and “no drug-induced liver injury reported”, respectively.
